What was measured:
[1] = target: T1, proteasome in Molt-4 cells (human leukemia) (Homo sapiens, UniProt P20618+P28074); format: cell-based; details: assay of Example E, inhibition of MOLT4; read-out: MOLT4 (EC50)
T1 sequence (P28074 60-263): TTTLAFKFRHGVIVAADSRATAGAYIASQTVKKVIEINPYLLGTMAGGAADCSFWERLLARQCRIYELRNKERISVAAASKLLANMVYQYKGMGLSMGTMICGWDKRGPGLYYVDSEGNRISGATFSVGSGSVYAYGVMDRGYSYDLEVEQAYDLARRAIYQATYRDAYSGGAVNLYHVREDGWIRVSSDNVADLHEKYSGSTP
T1 sequence (P20618 29-241): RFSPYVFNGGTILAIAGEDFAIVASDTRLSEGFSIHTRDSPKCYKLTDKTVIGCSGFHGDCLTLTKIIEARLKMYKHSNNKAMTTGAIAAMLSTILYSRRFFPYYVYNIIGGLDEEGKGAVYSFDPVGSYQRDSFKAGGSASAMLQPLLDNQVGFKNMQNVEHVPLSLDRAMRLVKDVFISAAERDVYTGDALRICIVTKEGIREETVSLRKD
Procedure, shortened: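 Intact Molt-4 cells (6×10^6 cells/mL) in HEPES-buffered saline were preincubated with inhibitor 15 min at 37 °C, then given cell-permeable MeOSuc-FLF-AFC at 25 μM final.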

[2] = target: T2, 20S Human Erythrocyte Proteasome (HEP) (Homo sapiens, UniProt P20618+P28074); assay: Chymotrypsin-like activity of 20S Human Erythrocyte Proteasome (HEP), IC50 determination; format: biochemical; details: assay of Example C, inhibition of HEP
T2 construct: 20S Human Erythrocyte Proteasome (HEP), purchased from Immatics Biotechnologies Inc; purchased Immatics Biotechnologies Inc., Tübingen, Germany; host or cells: human erythrocytes (natural source)
Procedure, shortened: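 20S proteasome at 0.2 μg/mL (about 0.6 nM catalytic sites) in 20 mM Tris with 0.04% SDS, preincubated 15 min at 37° C with inhibitor before Suc-LLVY-AMC (100 μM final). AMC fluorescence read in the linear range; triplicates, IC50 from concentration series.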

Row | Structure (SMILES) | EC50 [1] | IC50 [2]
1 | CC(C)C[C@H](NC(=O)[C@H](CCCNC(=N)N[N+](=O)[O-])NC(=O)Cc1cccc(Cl)c1)B1O[C@@H]2C[C@@H]3C[C@@H](C3(C)C)[C@]2(C)O1 [D.3.128, 2-(3-Chlorophenyl)acetamide,N-[(1S)-1-[[[(1R)-1-[(3aS,4S,6S,7aR)-hexahydro-3a,5,5-trimethyl-4,6-methano-1,3,2-benzodioxaborol-2-yl]-3-methylbutyl]amino]carbonyl]-4-[[imino(nitroamino)methyl]amino]butyl]] | 200 to 2000 nM | < 10 nM
2 | CCCCCCCCCCC(=O)N[C@@H](CCCNC(=N)N[N+](=O)[O-])C(=O)N[C@@H](CC(C)C)B1O[C@@H]2C[C@@H]3C[C@@H](C3(C)C)[C@]2(C)O1 [D.3.129, Undecanamide,N-[(1S)-1-[[[(1R)-1-[(3aS,4S,6S,7aR)-hexahydro-3a,5,5-trimethyl-4,6-methano-1,3,2-benzodioxaborol-2-yl]-3-methylbutyl]amino]carbonyl]-4-[[imino(nitroamino)methyl]amino]butyl]] | < 200 nM | < 10 nM
3 | CC(C)C[C@H](NC(=O)[C@H](CCCNC(=N)N[N+](=O)[O-])NC(=O)CCCCCc1ccccc1)B1O[C@@H]2C[C@@H]3C[C@@H](C3(C)C)[C@]2(C)O1 [D.3.131, 6-Phenylhexanamide,N-[(1S)-1-[[[(1R)-1-[(3aS,4S,6S,7aR)-hexahydro-3a,5,5-trimethyl-4,6-methano-1,3,2-benzodioxaborol-2-yl]-3-methylbutyl]amino]carbonyl]-4-[[imino(nitroamino)methyl]amino]butyl]] | < 200 nM | < 10 nM
4 | CC(C)C[C@H](NC(=O)[C@H](CCCNC(=N)N[N+](=O)[O-])NC(=O)CCCCc1ccccc1)B1O[C@@H]2C[C@@H]3C[C@@H](C3(C)C)[C@]2(C)O1 [D.3.132, 5-Phenylpentanamide,N-[(1S)-1-[[[(1R)-1-[(3aS,4S,6S,7aR)-hexahydro-3a,5,5-trimethyl-4,6-methano-1,3,2-benzodioxaborol-2-yl]-3-methylbutyl]amino]carbonyl]-4-[[imino(nitroamino)methyl]amino]butyl]] | < 200 nM | < 10 nM
5 | CC(C)C[C@H](NC(=O)[C@H](CCCNC(=N)N[N+](=O)[O-])NC(=O)CCCCCCCCCO)B1O[C@@H]2C[C@@H]3C[C@@H](C3(C)C)[C@]2(C)O1 [D.3.133, 10-Hydroxydecanamide,N-[(1S)-1-[[[(1R)-1-[(3aS,4S,6S,7aR)-hexahydro-3a,5,5-trimethyl-4,6-methano-1,3,2-benzodioxaborol-2-yl]-3-methylbutyl]amino]carbonyl]-4-[[imino(nitroamino)methyl]amino]butyl]] | 200 to 2000 nM | < 10 nM
6 | CC(C)C[C@H](NC(=O)[C@H](CCCNC(=N)N[N+](=O)[O-])NC(=O)Cn1cnnn1)B1O[C@@H]2C[C@@H]3C[C@@H](C3(C)C)[C@]2(C)O1 [D.3.136] | > 10000 nM | < 10 nM
7 | CC(C)C[C@H](NC(=O)[C@H](CCCNC(=N)N[N+](=O)[O-])NC(=O)CSc1ncccn1)B1O[C@@H]2C[C@@H]3C[C@@H](C3(C)C)[C@]2(C)O1 [D.3.137] | 2000 to 10000 nM | < 100 nM
8 | CSCCC(=O)N[C@@H](CCCNC(=N)N[N+](=O)[O-])C(=O)N[C@@H](CC(C)C)B1O[C@@H]2C[C@@H]3C[C@@H](C3(C)C)[C@]2(C)O1 [D.3.138, 3-Methylsulfanylpropanamide,N-[(1S)-1-[[[(1R)-1-[(3aS,4S,6S,7aR)-hexahydro-3a,5,5-trimethyl-4,6-methano-1,3,2-benzodioxaborol-2-yl]-3-methylbutyl]amino]carbonyl]-4-[[imino(nitroamino)methyl]amino]butyl]] | 200 to 2000 nM | < 100 nM
9 | CC(=O)SCCCCCC(=O)N[C@@H](CCCNC(=N)N[N+](=O)[O-])C(=O)N[C@@H](CC(C)C)B1O[C@@H]2C[C@@H]3C[C@@H](C3(C)C)[C@]2(C)O1 [D.3.161, 6-(Acetylsulfanyl)hexanamide,N-[(1S)-1-[[[(1R)-1-[(3aS,4S,6S,7aR)-hexahydro-3a,5,5-trimethyl-4,6-methano-1,3,2-benzodioxaborol-2-yl]-3-methylbutyl]amino]carbonyl]-4-[[imino(nitroamino)methyl]amino]butyl]] | 200 to 2000 nM | < 10 nM
10 | CC(C)C[C@H](NC(=O)[C@@H](NC(=O)c1ccccc1)[C@@H](C)O)B1O[C@@H]2C[C@@H]3C[C@@H](C3(C)C)[C@]2(C)O1 [D.3.174, Benzamide,N-[(1S,2R)-1-[[[(1R)-1-[(3aS,4S,6S,7aR)-hexahydro-3a,5,5-trimethyl-4,6-methano-1,3,2-benzodioxaborol-2-yl]-3-methylbutyl]amino]carbonyl]-2-hydroxypropyl]] | < 200 nM | < 100 nM
11 | COCCOCCOCC(=O)N[C@H](C(=O)N[C@@H](CC(C)C)B1O[C@@H]2C[C@@H]3C[C@@H](C3(C)C)[C@]2(C)O1)[C@@H](C)O [D.3.175, 2-[2-(2-Methoxyethoxy)ethoxy]acetamide,N-[(1S,2R)-1-[[[(1R)-1-[(3aS,4S,6S,7aR)-hexahydro-3a,5,5-trimethyl-4,6-methano-1,3,2-benzodioxaborol-2-yl]-3-methylbutyl]amino]carbonyl]-2-hydroxypropyl]] | 200 to 2000 nM | < 100 nM
12 | CC(C)C[C@H](NC(=O)[C@@H](NC(=O)CCCc1ccccc1)[C@@H](C)O)B1O[C@@H]2C[C@@H]3C[C@@H](C3(C)C)[C@]2(C)O1 [D.3.176, 4-Phenylbutanamide,N-[(1S,2R)-1-[[[(1R)-1-[(3aS,4S,6S,7aR)-hexahydro-3a,5,5-trimethyl-4,6-methano-l53.2-benzodioxaborol-2-yl]-3-methylbutyl]amino]carbonyl]-2-hydroxypropyl]] | < 200 nM | < 10 nM
13 | Cc1ccc(OCC(=O)N[C@H](C(=O)N[C@@H](CC(C)C)B2O[C@@H]3C[C@@H]4C[C@@H](C4(C)C)[C@]3(C)O2)[C@@H](C)O)cc1 [D.3.177, (4-Methylphenoxy)acetamide,N-[(1S,2R)-1-[[[(1R)-1-[(3aS,4S,6S,7aR)-hexahydro-3a,5,5-trimethyl-4,6-methano-1,3,2-benzodioxaborol-2-yl]-3-methylbutyl]amino]carbonyl]-2-hydroxypropyl]] | < 200 nM | < 10 nM
14 | CCCCCC(=O)N[C@H](C(=O)N[C@@H](CC(C)C)B1O[C@@H]2C[C@@H]3C[C@@H](C3(C)C)[C@]2(C)O1)[C@@H](C)O [D.3.178, Hexanamide,N-[(1S,2R)-1-[[[(1R)-1-[(3aS,4S,6S,7aR)-hexahydro-3a,5,5-trimethyl-4,6-methano-1,3,2-benzodioxaborol-2-yl]-3-methylbutyl]amino]carbonyl]-2-hydroxypropyl]] | < 200 nM | < 100 nM
15 | CCCCc1ccc(C(=O)N[C@H](C(=O)N[C@@H](CC(C)C)B2O[C@@H]3C[C@@H]4C[C@@H](C4(C)C)[C@]3(C)O2)[C@@H](C)O)cc1 [D.3.179, 4-butylbenzamide, N-[(1S,2R)-1-[[[(1R)-1-[(3aS,4S,6S,7aR)-hexahydro-3a,5,5-trimethyl-4,6-methano-1,3,2-benzodioxaborol-2-yl]-3-methylbutyl]amino]-carbonyl]-2-hydroxypropyl]-] | < 200 nM | < 10 nM
16 | CC(C)C[C@H](NC(=O)[C@@H](NC(=O)c1ccc2ccccc2c1)[C@@H](C)O)B1O[C@@H]2C[C@@H]3C[C@@H](C3(C)C)[C@]2(C)O1 [D.3.180, Naphthalene-2-carboxamide,N-[(1S,2R)-1-[[[(1R)-1-[(3aS,4S,6S,7aR)-hexahydro-3a,5,5-trimethyl-4,6-methano-1,3,2-benzodioxaborol-2-yl]-3-methylbutyl]amino]carbonyl]-2-hydroxypropyl]] | < 200 nM | < 10 nM
17 | Cc1ccc(S(=O)(=O)CC(=O)N[C@@H](CCCNC(=N)N[N+](=O)[O-])C(=O)N[C@@H](CC(C)C)B2O[C@@H]3C[C@@H]4C[C@@H](C4(C)C)[C@]3(C)O2)cc1 [D.3.182] | 200 to 2000 nM | < 100 nM
18 | CC(C)C[C@H](NC(=O)[C@H](CCCNC(=N)N[N+](=O)[O-])NC(=O)CS(=O)(=O)c1ccccc1)B1O[C@@H]2C[C@@H]3C[C@@H](C3(C)C)[C@]2(C)O1 [D.3.185, 2-(Benzenesulfonyl)acetamide,N-[(1S)-1-[[[(1R)-1-[(3aS,4S,6S,7aR)-hexahydro-3a,5,5-trimethyl-4,6-methano-1,3,2-benzodioxaborol-2-yl]-3-methylbutyl]amino]carbonyl]-4-[[imino(nitroamino)methyl]amino]butyl]] | < 200 nM | < 10 nM
19 | CC(C)C[C@H](NC(=O)[C@H](CCCNC(=N)N[N+](=O)[O-])NC(=O)CCCCCCCCC#N)B1O[C@@H]2C[C@@H]3C[C@@H](C3(C)C)[C@]2(C)O1 [D.3.186, 9-Cyanononamide, N-[(1S)-1-[[[(1R)-1-[(3aS,4S,6S,7aR)-hexahydro-3a,5,5-trimethyl-4,6-methano-1,3,2-benzodioxaborol-2-yl]-3-methylbutyl]amino]carbonyl]-4-[[imino(nitroamino)methyl]amino]butyl]] | < 200 nM | < 10 nM
